The values below come from patent US20250145609A1, “3-SUBSTITUTED PYRIDAZINE COMPOUNDS AS SMARCA2 AND/OR SMARCA4 DEGRADERS” (Aurigene Oncology Limited, priority 2022, published 2025).

What all share (type): cell-based
In one experiment the target is T1, SMARCA4 (Homo sapiens, UniProt P51532).
T1 construct: endogenous in cells; host or cells: VCaP (ATCC CRL-2876)
In words: SMARCA4 degradation in VCaP cells by Western blot. The following applies: VCaP, 16 h, at 100 nM. In a few lines:
(§1)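 VCaP cells in DMEM treated 16 h with compound at a single 100 nM dose (DMSO ≤0.3%). Lysates were probed by Western blot for SMARCA2 or SMARCA4, with beta-tubulin as loading control. Percent degradation was calculated from band signals.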

The target of a further experiment is T2, SMARCA2 (Homo sapiens, UniProt P51531).
T2 construct: endogenous in cells; host or cells: VCaP (ATCC CRL-2876)
In words: SMARCA2 degradation in VCaP cells by Western blot. The settings on record: at 100 nM, 16 hours. In a few lines: as §1

The next experiment relates to VCaP cells. In words: Anti proliferative activity in VCaP cell line by CellTiter Glo assay. The following applies: Homo sapiens, VCaP, 192 h, 8 days incubation, CellTiter Glo luminescence. Here is the method: Example-P1: Determination of Anti Proliferative Activity of Compounds in Cell Lines VCaP by Cell Titer Glo©(Promega) Assay
VCaP (ATCC CRL-2876) cells were seeded in 96 well plate flat black clear bottom plates (Corning, Cat. No 3904) using complete DMEM Medium. Next day, compounds listed in the present invention were added to cells from 10 mM stocks made in DMSO (Sigma Cat no. D2650). Each concentration of compound was tested in triplicate with DMSO concentration at a final percentage not exceeding 0.3 in the cells. After the incubation of VCaP cells with compound for 8 days assay was terminated using 50 μl of CellTiter Glo© reagent (Promega, Cat. no G7572). CellTiter-Glo® Luminescent reagent determines the number of viable cells based on quantitation of ATP present which is an indicator of cell number and metabolic activity. Luminescence readings were taken in Victor-3 instrument. Percent inhibition of proliferation was calculated using formula, % inhibition=100−(luminescence value of test/luminescence value of DMSO control)*100. DMSO control (0%)=Cells in complete media with DMSO; blank=Media alone containing DMSO. EC50 was calculated using graph pad prism software.
Herein the group “A” refers to EC50 values lower than l0 nM, group “B” refers to EC50 values between l0 nM-100 nM (both inclusive) and group “C” refers to EC50 values greater than 100 nM.
On the technique in general: Cellular ATP, detected with luciferase, serves as a proxy for viable cell number.

Bounds are passed on as bounds.

T1 sequence (P51532 whole entry): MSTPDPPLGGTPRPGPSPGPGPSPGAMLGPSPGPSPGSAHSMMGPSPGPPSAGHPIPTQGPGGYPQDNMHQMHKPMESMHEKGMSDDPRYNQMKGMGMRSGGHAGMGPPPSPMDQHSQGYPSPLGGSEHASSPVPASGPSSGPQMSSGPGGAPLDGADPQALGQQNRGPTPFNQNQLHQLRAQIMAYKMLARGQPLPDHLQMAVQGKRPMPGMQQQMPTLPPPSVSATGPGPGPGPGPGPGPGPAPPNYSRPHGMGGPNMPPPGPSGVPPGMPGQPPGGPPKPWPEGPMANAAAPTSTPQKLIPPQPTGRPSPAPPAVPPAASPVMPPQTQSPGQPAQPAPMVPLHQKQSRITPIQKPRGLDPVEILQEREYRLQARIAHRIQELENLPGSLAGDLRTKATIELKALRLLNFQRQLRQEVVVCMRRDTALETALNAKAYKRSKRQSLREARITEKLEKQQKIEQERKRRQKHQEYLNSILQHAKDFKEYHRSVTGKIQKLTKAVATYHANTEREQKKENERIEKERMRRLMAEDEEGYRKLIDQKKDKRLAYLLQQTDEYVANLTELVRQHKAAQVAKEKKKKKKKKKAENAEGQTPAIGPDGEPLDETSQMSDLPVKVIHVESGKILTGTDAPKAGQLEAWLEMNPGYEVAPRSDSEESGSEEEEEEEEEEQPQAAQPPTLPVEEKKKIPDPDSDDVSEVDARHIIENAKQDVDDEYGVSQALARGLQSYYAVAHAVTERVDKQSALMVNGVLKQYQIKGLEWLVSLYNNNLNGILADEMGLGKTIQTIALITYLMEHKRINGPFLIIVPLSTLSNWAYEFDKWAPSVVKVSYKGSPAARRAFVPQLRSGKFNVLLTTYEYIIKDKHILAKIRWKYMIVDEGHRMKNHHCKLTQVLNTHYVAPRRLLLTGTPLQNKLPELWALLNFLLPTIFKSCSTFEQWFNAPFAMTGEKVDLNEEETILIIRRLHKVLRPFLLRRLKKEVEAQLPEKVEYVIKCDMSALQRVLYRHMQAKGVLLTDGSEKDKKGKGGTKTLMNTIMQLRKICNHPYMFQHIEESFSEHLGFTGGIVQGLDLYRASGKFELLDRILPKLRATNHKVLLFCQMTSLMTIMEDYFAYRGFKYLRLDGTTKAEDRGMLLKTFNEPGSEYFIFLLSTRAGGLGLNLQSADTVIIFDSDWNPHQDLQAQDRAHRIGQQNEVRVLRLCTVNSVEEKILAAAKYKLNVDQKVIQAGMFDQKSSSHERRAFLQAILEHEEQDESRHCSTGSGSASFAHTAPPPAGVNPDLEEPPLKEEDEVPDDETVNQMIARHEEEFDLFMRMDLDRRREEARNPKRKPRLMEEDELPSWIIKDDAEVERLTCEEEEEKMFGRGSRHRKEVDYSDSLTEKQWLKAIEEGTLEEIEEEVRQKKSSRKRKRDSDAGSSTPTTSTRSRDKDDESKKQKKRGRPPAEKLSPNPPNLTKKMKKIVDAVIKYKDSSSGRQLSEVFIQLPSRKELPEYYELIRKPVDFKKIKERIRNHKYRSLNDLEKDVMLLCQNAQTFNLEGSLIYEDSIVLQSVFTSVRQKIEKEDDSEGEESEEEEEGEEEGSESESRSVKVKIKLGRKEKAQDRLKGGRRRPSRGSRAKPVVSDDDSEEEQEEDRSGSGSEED
T2 sequence (P51531 whole entry): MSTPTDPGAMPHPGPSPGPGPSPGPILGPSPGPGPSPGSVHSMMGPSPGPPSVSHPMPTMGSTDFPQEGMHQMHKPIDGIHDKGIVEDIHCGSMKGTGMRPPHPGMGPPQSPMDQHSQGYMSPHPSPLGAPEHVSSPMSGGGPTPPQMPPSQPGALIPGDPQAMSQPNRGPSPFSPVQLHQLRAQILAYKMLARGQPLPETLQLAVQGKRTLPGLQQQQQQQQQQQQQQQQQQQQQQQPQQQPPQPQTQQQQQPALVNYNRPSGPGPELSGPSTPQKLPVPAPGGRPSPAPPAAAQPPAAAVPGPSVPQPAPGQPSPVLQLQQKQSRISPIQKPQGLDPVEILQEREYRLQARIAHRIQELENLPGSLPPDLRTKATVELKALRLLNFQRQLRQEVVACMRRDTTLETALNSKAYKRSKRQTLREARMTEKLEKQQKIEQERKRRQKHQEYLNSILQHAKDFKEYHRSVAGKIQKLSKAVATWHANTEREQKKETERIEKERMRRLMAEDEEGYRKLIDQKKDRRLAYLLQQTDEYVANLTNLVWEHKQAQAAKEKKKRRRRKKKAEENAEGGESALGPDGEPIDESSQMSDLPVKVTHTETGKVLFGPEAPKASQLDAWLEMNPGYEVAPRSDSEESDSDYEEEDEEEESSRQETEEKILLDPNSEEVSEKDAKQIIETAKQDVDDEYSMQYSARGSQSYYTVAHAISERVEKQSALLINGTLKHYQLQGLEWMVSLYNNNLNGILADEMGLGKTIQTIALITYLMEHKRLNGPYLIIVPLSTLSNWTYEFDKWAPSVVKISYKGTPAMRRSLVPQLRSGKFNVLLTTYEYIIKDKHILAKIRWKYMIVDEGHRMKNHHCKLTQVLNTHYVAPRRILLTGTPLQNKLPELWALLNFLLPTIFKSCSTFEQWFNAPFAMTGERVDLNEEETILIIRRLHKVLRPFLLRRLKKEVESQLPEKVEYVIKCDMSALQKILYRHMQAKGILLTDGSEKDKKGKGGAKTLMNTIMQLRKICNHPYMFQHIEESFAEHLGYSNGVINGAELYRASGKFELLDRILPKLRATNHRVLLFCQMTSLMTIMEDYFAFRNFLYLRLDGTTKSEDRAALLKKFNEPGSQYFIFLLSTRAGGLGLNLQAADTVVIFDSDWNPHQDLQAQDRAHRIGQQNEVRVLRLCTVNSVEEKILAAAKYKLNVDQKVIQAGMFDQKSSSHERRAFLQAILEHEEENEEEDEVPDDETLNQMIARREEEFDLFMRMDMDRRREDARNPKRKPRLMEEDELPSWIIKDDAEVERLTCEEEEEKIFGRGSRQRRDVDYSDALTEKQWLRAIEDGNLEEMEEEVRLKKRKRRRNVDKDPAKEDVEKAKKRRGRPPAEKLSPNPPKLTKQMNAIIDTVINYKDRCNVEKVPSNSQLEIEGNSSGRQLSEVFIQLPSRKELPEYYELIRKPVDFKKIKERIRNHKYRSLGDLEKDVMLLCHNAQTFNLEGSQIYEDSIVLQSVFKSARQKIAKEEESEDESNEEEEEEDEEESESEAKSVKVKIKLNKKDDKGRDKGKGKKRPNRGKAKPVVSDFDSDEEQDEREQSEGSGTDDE

The EC50 is the concentration at which the effect is half-maximal. A higher EC50 goes with a less potent agent. `Cc1ncsc1-c1ccc([C@H](C)NC(=O)[C@@H]2C[C@@H](O)CN2C(=O)[C@@H](NC(=O)CC2CCC(c3ccc(-c4cc(-c5ccccc5O)nnc4N)cc3)CC2)C(C)(C)C)cc1` (mixture of isomers) [Compound 43, (2S,4R)-1-((S)-2-(2-(4-(4-(3-amino-6-(2-hydroxyphenyl)pyridazin-4-yl)phenyl)cyclohexyl)acetamido)-3,3-dimethylbutanoyl)-4-hydroxy-N-((S)-1-(4-(4-methylthiazol-5-yl)phenyl)ethyl)pyrrolidine-2-carboxamide] came in with a Percent SMARCA4 degradation at 0.1 µM at SMARCA4 of 86%. Moreover, on SMARCA2, the “Percent degradation SMARCA2” value is reported as 97%. The compound further gave an EC50 in the experiment with VCaP cells below 0.01 µM.
The matching figures for `Cc1ncsc1-c1ccc([C@H](C)NC(=O)[C@@H]2C[C@@H](O)CN2C(=O)[C@@H](NC(=O)CN2CCC(Oc3ccc(-c4cc(-c5ccccc5O)nnc4N)cc3)CC2)C(C)(C)C)cc1` [Compound 53, (2S,4R)-1-((S)-2-(2-(4-(4-(3-amino-6-(2-hydroxyphenyl)pyridazin-4-yl)phenoxy)piperidin-1-yl)acetamido)-3,3-dimethylbutanoyl)-4-hydroxy-N-((S)-1-(4-(4-methylthiazol-5-yl)phenyl)ethyl)pyrrolidine-2-carboxamide]: 89%, 98% and below 0.01 µM.
Take `Cc1ncsc1-c1ccc([C@H](C)NC(=O)[C@@H]2C[C@@H](O)CN2C(=O)[C@@H](NC(=O)CC2CCC(c3ccc(-c4cc(-c5ccccc5O)nnc4N)cc3)CC2)C(C)(C)C)cc1` (single isomer, unassigned) [Compound 44]: the Percent SMARCA4 degradation at 0.1 µM on SMARCA4 was 89%. At SMARCA2, the “Percent degradation SMARCA2” value was found to be 98%. In the experiment on VCaP cells, this compound had an EC50 below 0.01 µM.
At SMARCA4, `Cc1ncsc1-c1ccc([C@H](C)NC(=O)[C@@H]2C[C@@H](O)CN2C(=O)C(c2cc(OCCOc3ccc(-c4cc(-c5ccccc5O)nnc4N)cc3)no2)C(C)C)cc1` (stereo partly drawn) [Compound 24, (2S,4R)-1-(2-(3-(2-(4-(3-amino-6-(2-hydroxyphenyl)pyridazin-4-yl)phenoxy)ethoxy)isoxazol-5-yl)-3-methylbutanoyl)-4-hydroxy-N—((S)-1-(4-(4-methylthiazol-5-yl)phenyl)ethyl)pyrrolidine-2-carboxamide] came in with a Percent SMARCA4 degradation at 0.1 µM of 96%. Besides, the “Percent degradation SMARCA2” value at SMARCA2 is reported as 95%. In addition, the EC50 with VCaP cells is below 0.01 µM.
The matching figures for `Cc1ncsc1-c1ccc([C@H](C)NC(=O)[C@@H]2C[C@@H](O)CN2C(=O)[C@@H](NC(=O)CN2CCC(c3ccc(-c4cc(-c5ccccc5O)nnc4N)cc3)CC2C)C(C)(C)C)cc1` (mixture of isomers) [Compound 35, (2S,4R)-1-((2S)-2-(2-(4-(4-(3-amino-6-(2-hydroxyphenyl)pyridazin-4-yl)phenyl)-2-methylpiperidin-1-yl)acetamido)-3,3-dimethylbutanoyl)-4-hydroxy-N-((S)-1-(4-(4-methylthiazol-5-yl)phenyl)ethyl)pyrrolidine-2-carboxamide]: 88%, 97% and below 0.01 µM.
The matching figures for `Cc1ncsc1-c1ccc([C@H](C)NC(=O)[C@@H]2C[C@@H](O)CN2C(=O)[C@@H](NC(=O)CN2CCN(c3ccc(-c4cc(-c5ccccc5O)nnc4N)cc3)CC2)C(C)(C)C)cc1` [Compound 12, (2S,4R)-1-((S)-2-(2-(4-(4-(3-amino-6-(2-hydroxyphenyl)pyridazin-4-yl)phenyl)piperazin-1-yl)acetamido)-3,3-dimethylbutanoyl)-4-hydroxy-N—((S)-1-(4-(4-methylthiazol-5-yl)phenyl)ethyl)pyrrolidine-2-carboxamide]: 54%, 98% and below 0.01 µM.
On the same counts, the results for `Cc1ncsc1-c1ccc([C@H](C)NC(=O)[C@@H]2C[C@@H](O)CN2C(=O)[C@@H](NC(=O)CN2CCC(c3ccc(-c4cc(-c5ccccc5O)nnc4N)cc3)CC2)C(C)(C)C)cc1` [Compound 29, (2S,4R)-1-((S)-2-(2-(4-(4-(3-amino-6-(2-hydroxyphenyl)pyridazin-4-yl)phenyl)piperidin-1-yl)acetamido)-3,3-dimethylbutanoyl)-4-hydroxy-N—((S)-1-(4-(4-methylthiazol-5-yl)phenyl)ethyl)pyrrolidine-2-carboxamide] are 95%, 95% and below 0.01 µM.
On SMARCA4, `Cc1ncsc1-c1ccc([C@H](C)NC(=O)[C@@H]2C[C@@H](O)CN2C(=O)[C@@H](NC(=O)C2CCC(c3ccc(-c4cc(-c5ccccc5O)nnc4N)cc3)CC2)C(C)(C)C)cc1` (mixture of isomers) [Compound 40, (2S,4R)-1-((S)-2-(4-(4-(3-amino-6-(2-hydroxyphenyl)pyridazin-4-yl)phenyl)cyclohexane-1-carboxamido)-3,3-dimethylbutanoyl)-4-hydroxy-N-((S)-1-(4-(4-methylthiazol-5-yl)phenyl)ethyl)pyrrolidine-2-carboxamide] yielded a Percent SMARCA4 degradation at 0.1 µM of 45%. Also, the “Percent degradation SMARCA2” value at SMARCA2 turned out to be 97%. The EC50 in the experiment with VCaP cells is below 0.01 µM.
